Like-named read-outs stand apart in the source and are kept apart here.

Results on 10 molecules are retold here after patent US6645755B1, “VECTOR MODIFIED BY SEQUENCE CODING FOR A SEQUENCE OF AMINO ACIDS CONTAINED IN A MAMMALIAN PROTEIN HAVING THE BIOLOGICAL ACTIVITY OF A MEMBRANE RECEPTOR, EXPRESSION OF THIS SEQUENCE IN TRANSFORMED UNICELLULAR CULTURES BY MEANS OF THIS VECTOR, PROCEDURE FOR STUDYING LIGANDS RECOGNIZING THESE RECEPTORS” (Centre National de la Recherche Scientifique, priority 1988, dated 2003).

The target in experiment [1] is T1, human β2-adrenergic receptor (Homo sapiens, UniProt P07550).
T1 construct: extending from the NcoI site to the DraI site which contained the coding region for the human β2-adrenergic receptor; β-galactosidase (lacZ product of λgt11, fused at the EcoRI site near the 3' end of lacZ) (N); linker Asp-Asp-Pro (acid-cleavable) (N); expressed in transfected cells; host or cells: E. coli Y1089 lysogenized with recombinant λgt11
The experiment is described as follows: cell-based. The experiment is classed as binding.

Another experiment concerns mamm. β1AR. As to conditions: reference mammalian tissues, cited from earlier work; for mamm. β1/β2: Ki ratio.
The target of a further experiment is mamm. β2AR. The conditions noted are these: reference mammalian tissues; cited from earlier work.
Another experiment has as its target Huβ2AR (Homo sapiens, UniProt P07550). Kind of experiment: Competition binding against ICYP on E. coli expressing Huβ2AR (pSMLβ2).
Experiment [2] has as its system Huβ1AR. The experiment is described as follows: Competition binding against ICYP on E. coli expressing Huβ1AR (pSMLβ1). As to conditions: ratio of Ki on Huβ1AR and Huβ2AR expressed in E. coli.
In experiment [3] the target is Huβ1AR (Homo sapiens, UniProt P08588). The description is as above.
Huβ1AR (Homo sapiens, UniProt P08588), sequence (P08588 58-377 limits assumed): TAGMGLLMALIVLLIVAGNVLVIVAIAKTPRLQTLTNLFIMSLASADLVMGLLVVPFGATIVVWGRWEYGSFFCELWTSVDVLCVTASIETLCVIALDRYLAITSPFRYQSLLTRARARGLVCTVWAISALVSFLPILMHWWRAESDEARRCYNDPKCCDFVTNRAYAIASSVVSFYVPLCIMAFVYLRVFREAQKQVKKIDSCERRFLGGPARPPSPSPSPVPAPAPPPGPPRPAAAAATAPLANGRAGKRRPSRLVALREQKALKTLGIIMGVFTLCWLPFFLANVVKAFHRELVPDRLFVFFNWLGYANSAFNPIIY

With (−) epinephrine, in experiment [1], the Ki (commonly the equilibrium dissociation constant of an inhibitor or competing ligand from its target) was found to be 4.7 ± 1.4 µM.
`OC(CNCC(O)C1CCc2cc(F)ccc2O1)C1CCc2cc(F)ccc2O1` (centres unmarked) [R67555]: the “mamm. β1/β2” value in the experiment on mamm. β1AR is 0,02. For the same molecule, the Ki at mamm. β1AR was 0.0009 µM; at mamm. β2AR, 0.046 µM; at Huβ2AR (read-out: Ki E. coli Huβ2AR, 10 pM ICYP as radioligand, Ki calculated from IC50), 0.00383 µM.
Regarding `CCC(NC(C)C)C(O)c1ccc(O)c2[nH]c(=O)ccc12` (centres unmarked) [procaterol], the Ki in experiment [1] is 0.04 ± 0.008 µM; at Huβ2AR, 0.0553 µM; at Huβ1AR [3], 4.65 µM. In addition, the “E. coli Kiβ1/Kiβ2” value with Huβ1AR [2] is 84,1.
`CS(=O)(=O)O.Cn1cc(C(F)(F)F)nc1-c1ccc(OCC(O)CNCCOc2ccc(O)c(C(N)=O)c2)cc1` (centres unmarked) [CGP 20712-A]: in the experiment on mamm. β1AR, the “mamm. β1/β2” value was 0,003 and the Ki was 0.00324 µM. Moreover, at mamm. β2AR, the Ki is 0.982 µM. In addition, the “E. coli Kiβ1/Kiβ2” value in the experiment with Huβ1AR [2] was 0,0005.
`CC(C)NCC(O)COc1cccc2ccccc12` (centres unmarked) [propranolol]: in the experiment with mamm. β1AR, the “mamm. β1/β2” value was 5,5.
As to `NC[C@H](O)c1ccc(O)c(O)c1` [norepinephrine], the “mamm. β1/β2” value in the experiment with mamm. β1AR was 1,49. For the same molecule, the results for the inhibitory constant (Ki) at mamm. β1AR and at mamm. β2AR were 2.8 µM and 1.88 µM, respectively.
For the molecule `CNC[C@H](O)c1ccc(O)c(O)c1` [epinephrine], in the experiment with mamm. β1AR, the “mamm. β1/β2” value is given as 4,7 and the Ki is 1.9 µM. For the same molecule, the Ki at mamm. β2AR is 0.403 µM.
Take `Cc1ccc(OCC(O)C(C)NC(C)C)c2c1CCC2` (centres unmarked) [ICI 118,551]: in the experiment with mamm. β1AR, the “mamm. β1/β2” value is listed as 130 and the Ki is 0.086 µM.
On to `CC(C)(Cc1ccccc1)NCC(O)c1ccc(O)c(NS(C)(=O)=O)c1` (centres unmarked) [zinterol], for which the “mamm. β1/β2” value with mamm. β1AR is listed as 8,1. For the same molecule, the Ki at mamm. β1AR is 0.17 µM; at mamm. β2AR, 0.021 µM; at Huβ2AR, 0.00914 µM; at Huβ1AR [3], 0.168 µM. The “E. coli Kiβ1/Kiβ2” value in the experiment on Huβ1AR [2] is given as 18,4.
`CC(C)(C)NCC(O)c1cc(Cl)c(N)c(Cl)c1` (centres unmarked) [clembuterol]: in the experiment with mamm. β1AR, the “mamm. β1/β2” value is given as 5,1. For the same molecule, the Ki at mamm. β1AR was 0.071 µM; at mamm. β2AR, 0.014 µM; at Huβ1AR [3] (read-out: Ki E. coli Huβ1AR, 10 pM ICYP as radioligand, Ki calculated from IC50), 0.037 µM.
